Drawing on patent US10323022B2, “Pyrrolidinyl urea, pyrrolidinyl thiourea and pyrrolidinyl guanidine compounds as TrkA kinase inhibitors” (Array BioPharma Inc., priority 2011, dated 2019), this text covers IC50 for 26 molecules.

Counter-ions that a name gives are not always drawn. Some results are limits rather than exact numbers.

Sequence of TrkA (P04629 33-796): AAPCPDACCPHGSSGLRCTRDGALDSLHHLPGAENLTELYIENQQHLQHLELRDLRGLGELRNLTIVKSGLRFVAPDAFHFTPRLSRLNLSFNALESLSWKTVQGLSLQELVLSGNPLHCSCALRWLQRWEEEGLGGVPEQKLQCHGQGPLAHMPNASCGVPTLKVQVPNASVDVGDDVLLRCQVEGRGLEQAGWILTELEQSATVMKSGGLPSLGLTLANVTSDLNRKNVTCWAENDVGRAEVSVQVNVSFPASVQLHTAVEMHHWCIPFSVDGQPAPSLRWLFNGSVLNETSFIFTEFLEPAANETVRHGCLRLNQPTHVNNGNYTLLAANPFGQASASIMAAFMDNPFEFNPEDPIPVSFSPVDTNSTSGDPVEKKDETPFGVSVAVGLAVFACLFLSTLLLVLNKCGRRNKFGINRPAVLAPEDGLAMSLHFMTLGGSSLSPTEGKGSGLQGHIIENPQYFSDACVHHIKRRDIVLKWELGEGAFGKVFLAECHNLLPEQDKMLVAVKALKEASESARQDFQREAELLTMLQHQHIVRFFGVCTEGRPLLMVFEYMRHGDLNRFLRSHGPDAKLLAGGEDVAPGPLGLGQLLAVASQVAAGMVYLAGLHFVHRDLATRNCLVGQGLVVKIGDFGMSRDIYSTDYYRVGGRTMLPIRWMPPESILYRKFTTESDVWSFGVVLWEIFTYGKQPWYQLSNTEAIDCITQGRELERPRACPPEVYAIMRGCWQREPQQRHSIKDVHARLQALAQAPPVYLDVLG

This test addresses TrkA (Homo sapiens (Human), UniProt P04629). Description: TrkA Omnia Assay. The format is biochemical. The conditions noted are these: averaged IC50; 20 nM enzyme, 500 μM ATP, 10 μM peptide substrate. Summed up: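 Recombinant TrkA (20 nM) preincubated 10 min at ambient temperature with compound, then Omnia Tyr Peptide #4 (10 μM) and ATP (500 μM) added in 25 mM MOPS pH 7.5, 5 mM MgCl2, 0.005% Triton X-100. Fluorescence (ex 360/em 485 nm) followed continuously for 70 min; IC50 from initial rates by 4- or 5-parameter logistic fit.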
In turn, `CCOc1nn(-c2ccccc2)c(NC(=O)N[C@@H]2CN(CCOC)C[C@H]2c2ccc(F)c(F)c2)c1CCO` [Example 550, 1-((3S,4R)-4-(3,4-difluorophenyvl)-1-(2-methoxyethyl)pyrrolidin-3-yl)-3-(3-ethoxy-4-(2-hydroxyethyl)-1-phenyl-1H-pyrazol-5-yl)urea] had an IC50 of under 100 nM.
In turn, `COCCCc1nn(-c2ccccc2)c(NC(=O)N[C@@H]2CN(c3cn[nH]c3)C[C@H]2c2ccc(F)c(F)c2)c1C` [Example 225, 1-((3S,4R)-4-(3,4-difluorophenyl)-1-(1H-pyrazol-4-yl)pyrrolidin-3-yl)-3-(3-(3-methoxypropyl)-4-methyl-1-phenyl-1H-pyrazol-5-yl)urea] gave an IC50 of under 100 nM.
Under `COCCN1C[C@@H](NC(=O)Nc2cc(-c3cccs3)nn2C)[C@H](c2cc(F)cc(F)c2)C1` [Example 99, 1-((3S,4R)-4-(3,5-difluorophenyl)-1-(2-methoxyethyl)pyrrolidin-3-yl)-3-(1-methyl-3-(thiophen-2-yl)-1H-pyrazol-5-yl)urea] stands under 100 nM; under `COCCN1C[C@@H](NC(=O)Nc2c3c(nn2-c2ccccc2)CCC3)[C@H](c2cnco2)C1` (relative stereo) [Example 46, 1-(trans-1-(2-methoxyethyl)-4-(oxazol-5-yl)pyrrolidin-3-yl)-3-(2-phenyl-2,4,5,6-tetrahydrocyclopenta[c]pyrazol-3-yl)urea], 1000 to 10000 nM.
Under `COCCN1C[C@@H](NC(=O)Nc2c(C)c(-c3cnn(C)c3)nn2-c2ccccc2)[C@H](c2ccc(Cl)c(F)c2)C1` (relative stereo) [Example 294, 1-(trans-4-(4-chloro-3-fluorophenyl)-1-(2-methoxyethyl)pyrrolidin-3-yl)-3-(1′,4-dimethyl-1-phenyl-1H,1′H-[3,4′-bipyrazol]-5-yl)urea] stands under 100 nM; under `COCCN1C[C@@H](NC(=O)Nc2c(C(N)=O)c(C)nn2-c2ccccc2)[C@H](c2ccc(Cl)c(F)c2)C1` (relative stereo) [Example 624, 5-(3-((trans)-4-(4-chloro-3-fluorophenyl)-1-(2-methoxyethyl)pyrrolidin-3-yl)ureido)-3-methyl-1-phenyl-1H-pyrazole-4-carboxamide], under 100 nM; under `CO[C@@H](C)CN1C[C@@H](NC(=O)Nc2c3c(nn2-c2ccccc2)CCC3)[C@H](c2ccccc2)C1` [Example 184, 1-((3S,4R)-1-((S)-2-methoxypropyl)-4-phenylpyrrolidin-3-yl)-3-(2-phenyl-2,4,5,6-tetrahydrocyclopenta[c]pyrazol-3-yl)urea], 1000 to 10000 nM.
`O=C(Nc1c2c(nn1-c1ccccc1)CCC2)NC1CN(CCCC(F)(F)F)C[C@H]1c1ccccc1` (stereo partly drawn) [Example 185, 1-((3,4-trans)-4-phenyl-1-(4,4,4-trifluorobutyl)pyrrolidin-3-yl)-3-(2-phenyl-2,4,5,6-tetrahydrocyclopenta[c]pyrazol-3-yl)urea] displayed an IC50 of 100 to 1000 nM.
In turn, `COCCN1C[C@@H](NC(=O)Nc2c(Br)c([C@H]3CCCN3C(=O)OC(C)(C)C)nn2-c2ccccc2)[C@H](c2ccc(F)c(F)c2)C1` [Example 578, (R)-tert-butyl 2-(4-bromo-5-(3-((3S,4R)-4-(3,4-difluorophenyl)-1-(2-methoxyethyl)pyrrolidin-3-yl)ureido)-1-phenyl-1H-pyrazol-3-yl)pyrrolidine-1-carboxylate] gave an IC50 of 100 to 1000 nM.
`CCOC(=O)c1cnn(-c2ccccc2)c1NC(=O)N[C@@H]1CN(CCOC)C[C@H]1c1ccc(F)c(F)c1` [Example 154, ethyl 5-(3-((3S,4R)-4-(3,4-difluorophenyl)-1-(2-methoxyethyl)pyrrolidin-3-yl)ureido)-1-phenyl-1H-pyrazole-4-carboxylate]: the IC50 was in the range of 1000 to 10000 nM.
As to `COCCN1C[C@@H](NC(=O)Nc2c(C)c(OCCN3CCN(C)CC3)nn2-c2ccccc2)[C@H](c2ccc(F)c(F)c2)C1` [Example 551, 1-((3S,4R)-4-(3,4-difluorophenyl)-1-(2-methoxyethyl)pyrrolidin-3-yl)-3-(4-methyl-3-(2-(4-methylpiperazin-1-yl)ethoxy)-1-phenyl-1H-pyrazol-5-yl)urea trihydrochloride], the IC50 was under 100 nM.
`COCCN1C[C@@H](NC(=O)Nc2c(-c3ccccc3)nn(-c3cnccn3)c2C)[C@H](c2ccc(F)c(F)c2)C1` [Example 638, 1-((3S,4R)-4-(3,4-difluorophenyl)-1-(2-methoxyethyl)pyrrolidin-3-yl)-3-(5-methyl-3-phenyl-1-(pyrazin-2-yl)-1H-pyrazol-4-yl)urea] gave an IC50 of under 100 nM.
`COCCN1C[C@@H](NC(=O)Nc2c(Cl)c(C[C@H](C)O)nn2-c2ccccc2)[C@H](c2ccc(F)c(F)c2)C1` [Example 412, 1-(4-chloro-3-((S)-2-hydroxypropyl)-1-phenyl-1H-pyrazol-5-yl)-3-((3S,4R)-4-(3,4-difluorophenyl)-1-(2-methoxyethyl)pyrrolidin-3-yl)urea] displayed an IC50 of under 100 nM.
`COCCN1C[C@@H](NC(=O)Nc2c(C)c(-c3ccn(C)c(=O)c3)nn2-c2ccccc2)[C@H](c2ccc(Cl)c(F)c2)C1` (relative stereo) [Example 303, 1-(trans-4-(4-chloro-3-fluorophenyl)-1-(2-methoxyethyl)pyrrolidin-3-yl)-3-(4-methyl-3-(1-methyl-2-oxo-1,2-dihydropyridin-4-yl)-1-phenyl-1H-pyrazol-5-yl)urea] showed an IC50 of under 100 nM.
Take `COCCN1C[C@@H](NC(=O)Nc2c(C)c([C@@H]3CCCN3)nn2-c2ccccc2)[C@H](c2ccc(F)c(F)c2)C1` [Example 584, 1-((3S,4R)-4-(3,4-difluorophenyl)-1-(2-methoxyethyl)pyrrolidin-3-yl)-3-(4-methyl-1-phenyl-3-((S)-pyrrolidin-2-yl)-1H-pyrazol-5-yl)urea dihydrochloride]: the IC50 is under 100 nM.
Consider `COCCN1C[C@@H](NC(=O)Nc2cc(C(C)(C)C)nn2-c2cccc(C)c2)[C@H](c2ccccc2)C1` (relative stereo) [Example 30, 1-(3-tert-butyl-1-m-tolyl-1H-pyrazol-5-yl)-3-(trans-1-(2-methoxyethyl)-4-phenylpyrrolidin-3-yl)urea], for which the IC50 was under 100 nM.
In the case of `COCCN1C[C@@H](NC(=O)Nc2c3c(nn2-c2ccc(F)cc2)CCC3)[C@H](c2ccccc2)C1` (relative stereo) [Example 23, 1-(2-(4-fluorophenyl)-2,4,5,6-tetrahydrocyclopenta[c]pyrazol-3-yl)-3-(trans-1-(2-methoxyethyl)-4-phenylpyrrolidin-3-yl)urea], the IC50 was under 100 nM.
Regarding `CCOc1nn(-c2ccccc2)c(NC(=O)N[C@@H]2CN(CCOC)C[C@H]2c2ccc(F)c(F)c2)c1NC(=O)C(F)(F)F` [Example 548, N-(5-(3-((3S,4R)-4-(3,4-difluorophenyl)-1-(2-methoxyethyl)pyrrolidin-3-yl)ureido)-3-ethoxy-1-phenyl-1H-pyrazol-4-yl)-2,2,2-trifluoroacetamide], the IC50 is 100 to 1000 nM.
Regarding `O=C(Nc1c2c(nn1-c1ccccc1)CCC2)N[C@@H]1CN(CC(F)(F)F)CC1c1cccnc1` (stereo partly drawn) [Example 213, 1-(2-phenyl-2,4,56-tetrahydrocyclopenta[c]pyrazol-3-yl)-3-((trans)-4-(pyridin-3-v)-1-(2,2,2-trifluoroethyl)pyrrolidin-3-yl)urea], the IC50 was in the range of 100 to 1000 nM.
With `COCCN1C[C@@H](NC(=O)Nc2c(C)c(OC[C@@H](O)C(F)(F)F)nn2-c2ccccc2)[C@H](c2cc(F)cc(F)c2)C1` [Example 367, 1-((3S,4R)-4-(3,5-difluorophenyl)-1-(2-methoxyethyl)pyrrolidin-3-yl)-3-(4-methyl-1-phenyl-3-((R)-3,3,3-trifluoro-2-hydroxypropoxy)-1H-pyrazol-5-yl)urea] the figure was under 100 nM.
`CCOc1nn(-c2ccccc2)c(NC(=O)N[C@@H]2CN(C(CO)COC)C[C@H]2c2ccc(F)c(F)c2)c1C` (stereo partly drawn) [Example 263, 1-((3S,4R)-4-(3,4-difluorophenyl)-1-(1-hydroxy-3-methoxypropan-2-yl)pyrrolidin-3-yl)-3-(3-ethoxy-4-methyl-1-phenyl-1H-pyrazol-5-yl)urea] returned an IC50 of under 100 nM.
Under `COCCN1C[C@@H](NC(=O)Nc2c(C)c(-c3cc(C)n(C)n3)nn2-c2ccccc2)[C@H](c2ccc(F)cc2)C1` [Example 307, 1-((3S,4R)-4-(4-fluorophenyl)-1-(2-methoxyethyl)pyrrolidin-3-yl)-3-(1′,4,5′-trimethyl-1-phenyl-1H,1′H-[3,3′-bipyrazol]-5-yl)urea] stands under 100 nM.
With `COc1ncccc1N1C[C@@H](NC(=O)Nc2c(Br)c(-c3cnn(C)c3)nn2-c2ccccc2)[C@H](c2ccccc2)C1` [Example 246, 1-(4-bromo-1′-methyl-1-phenyl-1H,1′H-[3,4′-bipyrazol]-5-yl)-3-((3S,4R)-1-(2-methoxypyridin-3-yl)-4-phenylpyrrolidin-3-yl)urea] the figure was under 100 nM; with `COCCN1C[C@@H](NC(=O)Nc2cc(-c3ccc(C)cc3)nn2C)[C@H](c2ccc(F)c(F)c2)C1` [Example 102, 1-((3S,4R)-4-(3,4-difluorophenyl)-1-(2-methoxyethyl)pyrrolidin-3-yl)-3-(1-methyl-3-p-tolyl-1H-pyrazol-5-yl)urea], under 100 nM.
The molecule `COCCN1C[C@@H](NC(=O)Nc2c(Cl)c(OCC(C)(C)O)nn2-c2ccccc2)[C@H](c2ccc(F)c(F)c2)C1` [Example 359, 1-(4-chloro-3-(2-hydroxy-2-methylpropoxy)-1-phenyl-1H-pyrazol-5-yl)-3-((3S,4R)-4-(3,4-difluorophenyl)-1-(2-methoxyethyl)pyrrolidin-3-yl)urea] had an IC50 of under 100 nM.
As for `COCCN1C[C@@H](NC(=O)Nc2c(C(N)=O)c(C(F)F)nn2-c2ccccc2)[C@H](c2ccc(F)c(F)c2)C1` [Example 628, 3-(difluoromethyl)-5-(3-((3S,4R)-4-(3,4-difluorophenyl)-1-(2-methoxyethyl)pyrrolidin-3-yl)ureido)-1-phenyl-1H-pyrazole-4-carboxamide], the IC50 is under 100 nM.

The term IC50 denotes the midpoint of a concentration-inhibition curve. Low readings indicate greater potency in that assay, high ones weaker potency in that assay.
